# Measurements reported in patent US10213451B2, “Methods and compounds for modulating the secretion or expression of adhesion proteins or angiopoietins of cells” (PACIFIC ARROW LIMITED, priority 2004, dated 2019).
# Assays:
# [1] = tested on: Leishmania Major (promastigotes); assay: Cell growth of Leishmania parasites by MTT assay; format: cell-based; conditions: read-out: IC50, cytotoxic to Leishmania Major (promastigotes)
# Procedure: Method: Leishmania parasites (Leishmania major: MRHO/SU/59/P/LV39) were grown in culture medium in a T75 flask at room temperature. Promastigotes of Leishmania major (approximately 40 million per ml) were used in the experiment. 1.2 ml cell culture was transferred to a well of the 24-wells plate. Saponin Y10 (0.2 ml in medium) with different concentrations (final 6.25-200 ug/ml) was added to culture and cells were grown for 1-5 days at room temperature. At the end of drug-treatment, 150 ul of MTT (5 mg/ml in PBS) was added to each well and incubated for 4 hours. Formazan formed in cells was dissolved with DMSO and the OD at 490 nm was determined by an ELISA reader.
# [2] = tested on: Fibronectin secretion from brain glioblastoma T98G cells; assay: Fibronectin secretion (Western blot), T98G cells; format: cell-based, human; conditions: Homo sapiens, T98G, 10 ug/ml
# [3] = tested on: Fibronectin secretion from ES2 cells; assay: Fibronectin secretion (Western blot), ES2 cells; format: cell-based, human; conditions: for % inhibition of Fibronectin secretion: ES2 cells, 80 ug/ml
# Procedure: Inhibition of Fibronectin secretion is physiological and the determination of its quantity is based on the following criteria: • 1. Fibronectin is secreted from viable cells. Only cell with over 85% viable cells after drug-treatment are employed in these experiments. The viable cells were determined by MTT assay. • 2. For comparison, the immuno-band intensity from each samples are normalized with cell mass. The cell mass was determined by the MTT assay and is assigned as a MTT unit for each cell sample.
# Cells: ES2 cells were grew in T-25 flask with RPMI 1640 medium over night before drug-treatment. Drug-treatment: cells cultures were replaced with fresh RPMI medium with Xanifolia-Y (10 ug/ml final concentration) or DMSO (as control) at 0 hour. At 1, 2, 4, 8 and 24 hour, aliquot of culture medium was taken out for Fibronectin determination. Fibronectin was determined by Western blot with monoclonal antibody (SIGMA) specific to human Fibronectin only.
# Drug-treatment: cells cultures were replaced with fresh RPMI medium containing Xanifolia-Y (10 ug/ml final concentration) or DMSO (as control) at 0 hour. At 4 hours (A) or 8 hour (B), culture medium was replaced with fresh culture medium without drug. At 2, 4, 8 and 24 hour, aliquot of culture medium was taken out for Fibronectin determination. Fibronectin (FN) was determined by Western blot with monoclonal antibody (SIGMA) specific only to human Fibronectin.
# Drug-treatment: cells cultures were replaced with fresh RPMI medium containing Xanifolia-Y (10 ug/ml final concentration) or DMSO (as control) at 0 hour. At 2, and 18 hour, aliquot of culture medium was taken out for Fibronectin determination (Western blot method). Cell viability at 18 hours was determined by MTT assay. Cultures were replaced with RPMI medium with MTT and incubated for an hour. The formation of formazan was dissolved in DMSO and OD at 570 nm was measured.
# Cells and Drug-treatment: same as previous experiments. After 7 or 24 hours, aliquot of culture medium was taken out for Fibronectin determination (Western blot method). Cell viability at 24 hours was determined by MTT assay.
# Cells: ES2 cells were grew in RPMI 1640 medium over night before drug-treatment. Drug-treatment: cells cultures were replaced with fresh RPMI medium containing DMSO (as control) [D]; Xanifolia-Y (10 ug/ml) [Y]; or Paclitaxel 10 or 50 ng/ml [T10, ro T50]. After 24 hours, aliquot of culture medium was taken out for Fibronectin determination (Western blot method). Cell viability at 24 hours was determined by MTT assay.
# The amount of Fibronectin secreted by cells into medium was determined by Western blot assay. The amount of Fibronectin secreted per cells basis was determined by dividing the Western-band intensity with the MTT unit.
# Western Blot: Spent culture medium (0.6 ml) was mixed with SDS sample buffer (0.2 ml), boiled for 3 minutes before loading to SDS gel. Samples (60 ul/lane) were applied to a 6% SDS gel and electrophoresis was conducted with 100 volts for 2 hours. Protein was transferred to a nitrocellulose paper electrophoretically (30 min at 100 volts). The Western blot was incubated with the first antibody (mouse anti-FN, specific to human FN, SIGMA F0916) and second antibody (Anti-mouse IgG AP conjugated, Promega S3721). The immunobands were developed with BCIP/NBT color development system (Promega S3771).
# [4] = tested on: (bladder)TB9 cells / HTB-9; assay: MTT assay bladder cells; format: cell-based, human; conditions: Homo sapiens; (bladder)TB9 cells; read-out: IC50
# Procedure: (§1) Cells. Human cancer cell lines were obtained from American Type Culture Collection: HTB-9 (bladder), HeLa-S3 (cervix), DU145 (prostate), H460 (lung), MCF-7 (breast), K562 (leukocytes), HCT116 (colon), HepG2 (liver), U2OS (bone), T98G (brain), SK-MEL-5 (Skin) and OVCAR-3 (ovary). The cells were grown in following culture media: HeLa-53, DU145, MCF-7, Hep-G2 and T98G are in MEN (Earle's salts); HTB-9, H460, K562 and OVCAR-3 in RPMI-1640; HCT-116 and U2OS in McCoy-5A. They are supplemented with 10% fetal calf serum, glutamine and antibiotics, and incubated in an incubator with 5% CO2 humidified at 37° C.
# (§2) MTT Assay. The procedure for MTT assay followed the method described by Carmichael et al. (1987) with modifications. The cells were seeded into a 96-well plate at concentration of 10,000/well for HTB-9, HeLa, H460, HCT116, T98G and OVCAR-3), 15,000/well for DU145, MCF-7, HepG2 and U2OS), and 40,000/well for K562 for 24 hours before drug-treatment. The cells were then exposed to the drugs for 48 hours (72 hours for HepG2 and U2OS, and 96 hours for MCF-7). After the drug-treatment, MTT (0.5 mg/mL) was added to cultures and incubated for an hour. The formazan (product of the reduction of tetrazolium by viable cells) formed and was dissolved with DMSO and the O.D. at 490 nm, and was measured by an ELISA reader. The MTT level of the cells before drug-treatment was also measured (T0). The % cell-growth (% G) is calculated as: % G=(TD−T0/TC−T0)×100(1), where TC or TD represents O.D. readings of control or drug-treated cells. When T0>TD, then the cytotoxicity (LC) expressed as % of the control is calculated as: % LC=(TD−T0/T0)×100(2).
# [5] = tested on: Fibronectin secretion from liver HepG2 cells; assay: Fibronectin secretion (Western blot), HepG2 cells; format: cell-based, human
# (Breast)MCF7 = assay: MTT assay MCF7; format: cell-based, human; conditions: Homo sapiens, read-out: IC50
# Procedure: as §1
# (§3) MTT Assay. The procedure for MTT assay followed the method described by Carmichael et al. (1987) with modifications. […] The formazan (product of the reduction of tetrazolium by viable cells) formed and was dissolved with DMSO and the O.D. at 490 nm, and was measured by an ELISA reader. The MTT level of the cells before drug-treatment was also measured (T0). The % cell-growth (% G) is calculated as: % G=(TD−T0/TC−T0)×100(1), where TC or TD represents O.D. readings of control or drug-treated cells. When T0>TD, then the cytotoxicity (LC) expressed as % of the control is calculated as: % LC=(TD−T0/T0)×100(2).
# (Prostate) DU145 = assay: MTT assay DU145; format: cell-based, human; conditions: Homo sapiens, DU-145, read-out: IC50
# Procedure: as §1, §3
# [6] = tested on: Fibronectin secretion from skin SK-Mel-5 cells; assay: Fibronectin secretion (Western blot), SK-MEL-5 cells; format: cell-based, human; conditions: Homo sapiens, 10 ug/ml
# ES2(ovarian) cells = assay: MTT assay ES2; format: cell-based, human; conditions: Homo sapiens, ES-2, ES2 cells; read-out: IC50
# (Liver) HepG2 = assay: MTT assay HepG2; format: cell-based, human; conditions: Homo sapiens, read-out: IC50
# Procedure: as §1, §3
# [7] = tested on: Fibronectin secretion from bladder carcinoma cells (HTB-9); assay: Fibronectin secretion (Western blot), HTB-9 cells; format: cell-based, human; conditions: Homo sapiens, 10 ug/ml
# (lung)H460 cells = assay: MTT assay H460; format: cell-based; conditions: Homo sapiens, NCI-H460
# Procedure: as §1, §3
# (brain) T98G = assay: MTT assay T98G; format: cell-based; conditions: Homo sapiens
# Procedure: as §1, §3
# (Skin) SK-MELS = assay: MTT assay SK-MEL-5; format: cell-based, human; conditions: Homo sapiens, SK-MEL-5, read-out: IC50
# Procedure: as §1, §3
# [8] = tested on: Fibronectin secretion from lung carcinoma cells (H460); assay: Fibronectin secretion (Western blot), H460 cells; format: cell-based, human; conditions: Homo sapiens, NCI-H460, H460 cells, 10 ug/ml
# tumor growth = assay: MTT anticancer activity of Y, X and hydrolysis products (FIG. 4C); format: cell-based
# Procedure: as §2
# (A) Alkaline Hydrolysis of Xanifolia-Y: 20 mg of Xanifolia-Y was dissolved in 0.5 mL of 1M NaOH. The solution was incubated in an 80° C. water bath for 4 hours. It was cooled to room temperature before being neutralized with 0.5 mL 1 N HCl (adjusted pH to about 3). The mixture was extracted with 2 mL 1-butanol 3 times. The butanol fractions were collected and lyophilized. The hydrolyzed saponin was further purified with HPLC in a C-18 column eluted with 25% acetonitrile.
# (B) Acid Hydrolysis of Xanifolia-Y: 15 mg Xanifolia-Y was dissolved in 1 mL of Methanol. 1 mL of 2N HCl was then added. The mixture was refluxed in an 80° C. water bath for 5 hours. The solution was then neutralized by adding 2 mL of 1N NaOH (to a final pH 3-4). The aglycone was then extracted with ethylacetate 3 mL×3. The extracts were collected and pooled. Further isolation of aglycone (sugar-removed Xanifolia-Y) was achieved by HPLC with isocratic elution of 80% acetonitrile.
# human red blood cells = assay: Hemolytic activity; format: cell-based; conditions: FIG. 3D
# Procedure: Methods: • Human whole blood was obtained from the Houston Gulf Coast Blood Center. • Red blood cells were isolated by the following method: Human blood (in EDTA) was diluted 1:1 with PBS, underlay with 4 mL of Histopaque-1077 (SIGMA) and was centrifuged at 400 g for 30 min. • Red blood cells (RBC) were collected and washed three times with PBS. • 10% suspensions of RBC were prepared with PBS before use. • 50 μL of RBC suspension was added to 2 mL of saponins with different concentration. • The suspension was mixed by vortexing then left to sit at room temperature for 60 minutes. • The suspension was centrifuged at 3000 rpm for 5 min. Absorbance of the supernatant was measured at 540 nm.
# K562 cells membrane = assay: EM study of membrane structure; format: cell-based, human; conditions: 20 uM, 60 min
# Excerpt: Xanifolia-Y has a potent hemolytic activity in red blood cells (FIG. 27). To study the effect of Xanifolia-Y on membrane structure, the morphology of cell membrane treated with Xanifolia-Y was examined with EM. […] Solvent DMSO and AKOH-Y (a derivative of Xanifolia-Y without the angeloyl group and it has no activity) served as controls. Cells were negative stained with 1% UAc and subsequently examined with EM.
smiles,measurement,setting,value
"C/C=C(/C)C(=O)O[C@H]1[C@H](OC(=O)/C(C)=C\C)[C@@]2(CO)C(CC1(C)C)C1=CCC3[C@@]4(C)CC[C@H](O[C@@H]5OC(C(=O)O)[C@@H](O)[C@@H](O[C@@H]6O[C@@H](CO)[C@@H](O)C6O)C5O[C@@H]5OC(CO)[C@H](O)[C@@H](O)C5O)C(C)(C)C4CC[C@@]3(C)[C@]1(C)C[C@H]2O (stereo partly drawn) [Xanifolia Y10, 3-O-[β-galactopyranosyl (1→2)]-α-arabinofuranosyl (1→3)-β-glucuronopyranosyl-21, 22-O-diangeloyl-3β, 16α, 21β, 22α, 28-pentahydroxyolean-12-ene]",IC50,[1],~15 µg/mL
C/C=C(/C)C(=O)O[C@H]1[C@H](OC(=O)/C(C)=C\C)[C@@]23C(CC1(C)C)[C@]1(CCC4[C@@]5(C)CC[C@H](O)C(C)(C)C5CC[C@@]4(C)[C@]1(C)C[C@H]2O)O[C@@H]3O (stereo partly drawn) [ACH-Mb5],inhibition at 10 µg/mL,[2],35%
same,inhibition at 10 µg/mL,"[3]; Homo sapiens, ES-2, ES2 cells, 10 ug/ml",30%
same,IC50,[4],5.7 µg/mL
same,inhibition at 10 µg/mL,"[5]; Homo sapiens, HepG2, HepG2 cells, 10 ug/ml",25%
same,IC50,(Breast)MCF7,13 µg/mL
same,IC50,(Prostate) DU145,6.4 µg/mL
same,inhibition at 10 µg/mL,[6],20%
same,IC50,ES2(ovarian) cells,8 µg/mL
same,IC50,(Liver) HepG2,4 µg/mL
same,inhibition at 10 µg/mL,[7],30%
same,IC50,(lung)H460 cells,6.5 µg/mL
same,IC50,(brain) T98G,6 µg/mL
same,IC50,(Skin) SK-MELS,22 µg/mL
same,inhibition at 10 µg/mL,[8],22%
CC1(C)CC2C3=CCC4[C@@]5(C)CC[C@H](O[C@@H]6OC(C(=O)O)[C@@H](O)[C@@H](O[C@@H]7O[C@@H](CO)[C@@H](O)C7O)C6O[C@@H]6OC(CO)[C@H](O)[C@@H](O)C6O)C(C)(C)C5CC[C@@]4(C)[C@]3(C)[C@@H](O)[C@@H](O)[C@@]2(CO)[C@@H](O)[C@@H]1O (stereo partly drawn) [AKOH-Y],% inhibition of Fibronectin secretion,[3],no effect
same,% inhibition of Fibronectin secretion,[3]; listed as AKOH,no effect
same,inhibition effect on Fibronectin secretion,"[5]; HepG2 cells, 80 ug/ml",Minimum or No effect
same,anticancer activity after alkaline hydrolysis,tumor growth,lost anticancer activity
same,MTT activities of hydrolysed products of compound Y,"tumor growth; FIG. 4C, 4D",lost MTT activities
same,anticancer activity,"tumor growth; FIG. 4C, even at 120 μg/ml",completely abolishes its anticancer activity
same,anticancer activity,tumor growth; even at 120 ug/ml,completely abolishes its anticancer activity
same,hemolytic activity of hydrolysed products of compound Y,human red blood cells,destroyed the hemolytic activity
same,membrane morphology (EM): patches of pits,K562 cells membrane,not
